Measurements taken from ChEMBL document CHEMBL5727484, “Compounds and methods for inhibiting NHE-mediated antiport in the treatment of disorders associated with fluid retention or salt overload and gastrointestinal tract disorders” (2020).

Assay: Cell-Based Assay of NHE-3 Activity: Rat NHE-3-mediated Na+-dependent H+ antiport was measured using a modification of the pH sensitive dye method originally reported by Tsien (Proc. Natl. Acad. Sci. USA. (1984) 81(23): 7436-7440). Opossum kidney (OK) cells were obtained from the ATCC and propagated per their instructions. The rat NHE-3 gene was introduced into OK cells via electroporation, seeded into 96 well plates and grown overnight. Medium was aspirated from the wells, cells were washed twice with NaCl-HEPES buffer (100 mM NaCl, 50 mM HEPES, 10 mM glucose, 5 mM KCl, 2 mM CaCl2, 1 mM MgCl2, pH 7.4), then incubated for 30 min at room temperature with NH4Cl-HEPES buffer (20 mM NH4Cl, 80 mM NaCl, 50 mM HEPES, 5 mM KCl, 2 mM CaCl2, 1 mM MgCl2, pH 7.4) containing 5 uM BCECF-AM (Invitrogen). Cells were washed twice with Ammonium free, Na+-free HEPES (100 mM choline, 50 mM HEPES, 10 mM glucose, 5 mM KCl, 2 mM CaCl2, 1 mM MgCl2, pH 7.4) and incubated in the same buffer for 10 minutes at room temperature to lower intracellular pH. […] Initial rates were plotted as the average 3-6 replicates, and pIC50 values were estimated using GraphPad Prism.

Structure (SMILES) | IC50
CN1Cc2c(Cl)cc(Cl)cc2C(c2cccc(S(=O)(=O)NCCOCCOCCOCCNC(=O)CCCCCCC(=O)NCCOCCOCCOCCNS(=O)(=O)c3cccc(C4CN(C)Cc5c(Cl)cc(Cl)cc54)c3)c2)C1 (stereo not given) | in the range around 316 nM
CN1Cc2c(Cl)cc(Cl)cc2C(c2cccc(S(=O)(=O)NCCOCCOCCNC(=O)NCCCCNC(=O)NCCOCCOCCNS(=O)(=O)c3cccc(C4CN(C)Cc5c(Cl)cc(Cl)cc54)c3)c2)C1 (stereo not given) | < 100 nM
CN1Cc2c(Cl)cc(Cl)cc2C(c2cccc(S(=O)(=O)NCCOCCOCCOCCNC(=O)c3ccccc3C(=O)NCCOCCOCCOCCNS(=O)(=O)c3cccc(C4CN(C)Cc5c(Cl)cc(Cl)cc54)c3)c2)C1 (stereo not given) | < 100 nM
CN1Cc2c(Cl)cc(Cl)cc2C(c2ccc(S(=O)(=O)NCCOCCOCCNC(=O)[C@H](O)[C@@H](O)C(=O)NCCOCCOCCNS(=O)(=O)c3ccc(C4CN(C)Cc5c(Cl)cc(Cl)cc54)cc3)cc2)C1 (stereo not given in full) | in the range around 316 nM
CN1Cc2c(Cl)cc(Cl)cc2C(c2cccc(S(=O)(=O)NCCOCCOCCNC(=O)c3ccc(C(=O)NCCOCCOCCNS(=O)(=O)c4cccc(C5CN(C)Cc6c(Cl)cc(Cl)cc65)c4)cc3)c2)C1 (stereo not given) | in the range around 3160 nM
CN1Cc2c(Cl)cc(Cl)cc2C(c2cccc(S(=O)(=O)NCCOCCOCCOCCNC(=O)NCCOCCOCCOCCNS(=O)(=O)c3cccc(C4CN(C)Cc5c(Cl)cc(Cl)cc54)c3)c2)C1 (stereo not given) | in the range around 316 nM
CN1Cc2c(Cl)cc(Cl)cc2C(c2cccc(S(=O)(=O)NCCOCCOCCNC(=O)Nc3ccc(NC(=O)NCCOCCOCCNS(=O)(=O)c4cccc(C5CN(C)Cc6c(Cl)cc(Cl)cc65)c4)cc3)c2)C1 (stereo not given) | < 100 nM
CN1Cc2c(Cl)cc(Cl)cc2C(c2cccc(S(=O)(=O)NCCOCCOCCNC(=O)COCC(=O)NCCOCCOCCNS(=O)(=O)c3cccc(C4CN(C)Cc5c(Cl)cc(Cl)cc54)c3)c2)C1 (stereo not given) | < 100 nM
CN1Cc2c(Cl)cc(Cl)cc2C(c2ccc(S(=O)(=O)NCCOCCOCCOCCNC(=O)c3ccc(C(=O)NCCOCCOCCOCCNS(=O)(=O)c4ccc(C5CN(C)Cc6c(Cl)cc(Cl)cc65)cc4)cc3)cc2)C1 (stereo not given) | < 10000 nM
CN1Cc2c(Cl)cc(Cl)cc2C(c2cccc(S(=O)(=O)NCCOCCOCCNC(=O)C(C)(C)C(=O)NCCOCCOCCNS(=O)(=O)c3cccc(C4CN(C)Cc5c(Cl)cc(Cl)cc54)c3)c2)C1 (stereo not given) | in the range around 3160 nM
NC(N)=NCCCN1CCN(c2cccc(-c3nc(N=C(N)N)nc4ccc(Cl)cc34)c2)CC1 | in the range around 316 nM
CN1Cc2c(Cl)cc(Cl)cc2C(c2cccc(S(=O)(=O)NCCOCCOCCNC(=O)NCCOCCOCCNS(=O)(=O)c3cccc(C4CN(C)Cc5c(Cl)cc(Cl)cc54)c3)c2)C1 (stereo not given) | < 10000 nM
CN1Cc2c(Cl)cc(Cl)cc2C(c2cccc(S(=O)(=O)NCCOCCOCCOCCOCCOCCOCCOCCOCCOCCOCCNC(=O)CCOCCOCCOCCOCCOCCOCCOCCOCCOCCC(=O)NCCOCCOCCOCCOCCOCCOCCOCCOCCOCCOCCNS(=O)(=O)c3cccc(C4CN(C)Cc5c(Cl)cc(Cl)cc54)c3)c2)C1 (stereo not given) | in the range around 316 nM
CN1Cc2c(Cl)cc(Cl)cc2C(c2cccc(S(=O)(=O)NCCOCCOCCOCCNC(=O)c3cc(C(=O)NCCOCCOCCOCCNS(=O)(=O)c4cccc(C5CN(C)Cc6c(Cl)cc(Cl)cc65)c4)cc(C(=O)NCCOCCOCCOCCNS(=O)(=O)c4cccc(C5CN(C)Cc6c(Cl)cc(Cl)cc65)c4)c3)c2)C1 (stereo not given) | < 100 nM
C/C(=C\c1cc(F)c(Oc2ccc(S(=O)(=O)NCCCP(=O)(O)O)cc2)c(F)c1)C(=O)N=C(N)N | in the range around 3160 nM
NC(N)=Nc1nc(-c2cccc(N3CCN(CCO)CC3)c2)c2cc(Cl)ccc2n1 | in the range around 316 nM
CN1Cc2c(Cl)cc(Cl)cc2C(c2cccc(S(=O)(=O)NCCOCCOCCNC(=O)CCC(=O)NCCOCCOCCNS(=O)(=O)c3cccc(C4CN(C)Cc5c(Cl)cc(Cl)cc54)c3)c2)C1 (stereo not given) | < 100 nM
C/C(=C\c1cc(F)c(Oc2ccc(S(=O)(=O)NCCOCCOCCOCCN)cc2)c(F)c1)C(=O)N=C(N)N | in the range around 316 nM
N=C(N)N1CCN(c2ccc(-c3nc(N=C(N)N)nc4ccc(Cl)cc34)cc2)CC1 | in the range around 316 nM
CN1Cc2c(Cl)cc(Cl)cc2C(c2ccc(S(=O)(=O)NCCOCCOCCNC(=O)C(O)C(O)C(=O)NCCOCCOCCNS(=O)(=O)c3ccc(C4CN(C)Cc5c(Cl)cc(Cl)cc54)cc3)cc2)C1 (stereo not given) | < 100 nM
CN1Cc2c(Cl)cc(Cl)cc2C(c2cccc(S(=O)(=O)NCCOCCOCCOCCNC(=O)c3cccc(C(=O)NCCOCCOCCOCCNS(=O)(=O)c4cccc(C5CN(C)Cc6c(Cl)cc(Cl)cc65)c4)c3)c2)C1 (stereo not given) | in the range around 316 nM
C/C(=C\c1cc(F)c(Oc2ccc(S(=O)(=O)NCCOCCOCCOCCNC(=O)CCCCCCC(=O)NCCOCCOCCOCCNS(=O)(=O)c3ccc(Oc4c(F)cc(/C=C(\C)C(=O)N=C(N)N)cc4F)cc3)cc2)c(F)c1)C(=O)N=C(N)N | < 100 nM
CN1Cc2c(Cl)cc(Cl)cc2C(c2cccc(S(=O)(=O)NCCOCCOCCOCCNC(=O)[C@@H](O)[C@@H](O)C(=O)NCCOCCOCCOCCNS(=O)(=O)c3cccc(C4CN(C)Cc5c(Cl)cc(Cl)cc54)c3)c2)C1 (stereo not given in full) | < 100 nM

Structure (SMILES) | IC50
CN1Cc2c(Cl)cc(Cl)cc2C(c2ccc(S(=O)(=O)NCCOCCOCCOCCNC(=O)C(O)C(O)C(=O)NCCOCCOCCOCCNS(=O)(=O)c3ccc(C4CN(C)Cc5c(Cl)cc(Cl)cc54)cc3)cc2)C1 (stereo not given) | < 100 nM
CN1Cc2c(Cl)cc(Cl)cc2C(c2ccc(S(=O)(=O)NCCOCCOCCNC(=O)c3ccc(C(=O)NCCOCCOCCNS(=O)(=O)c4ccc(C5CN(C)Cc6c(Cl)cc(Cl)cc65)cc4)cc3)cc2)C1 (stereo not given) | < 10000 nM
CN1Cc2c(Cl)cc(Cl)cc2C(c2ccc(S(=O)(=O)NCCOCCOCCNC(=O)NCCOCCOCCNS(=O)(=O)c3ccc(C4CN(C)Cc5c(Cl)cc(Cl)cc54)cc3)cc2)C1 (stereo not given) | < 10000 nM
NC(N)=Nc1nc(-c2ccc(N3CCN(CCO)CC3)cc2)c2cc(Cl)ccc2n1 | in the range around 316 nM
C/C(=C\c1cc(F)c(Oc2ccc(S(=O)(=O)NCCOCCOCCOCCOCCOCCOCCN)cc2)c(F)c1)C(=O)N=C(N)N | in the range around 316 nM
CN1Cc2c(Cl)cc(Cl)cc2C(c2ccc(S(=O)(=O)NCCOCCOCCOCCNC(=O)NCCOCCOCCOCCNS(=O)(=O)c3ccc(C4CN(C)Cc5c(Cl)cc(Cl)cc54)cc3)cc2)C1 (stereo not given) | < 100 nM
CN1Cc2c(Cl)cc(Cl)cc2C(c2ccc(NS(=O)(=O)NCCP(=O)(O)O)cc2)C1 (stereo not given) | in the range around 3160 nM
NCCCN1CCN(c2cccc(-c3nc(N=C(N)N)nc4ccc(Cl)cc34)c2)CC1 | in the range around 316 nM
CN1Cc2c(Cl)cc(Cl)cc2C(c2cccc(S(=O)(=O)NCCOCCOCCNC(=O)[C@H](O)[C@@H](O)C(=O)NCCOCCOCCNS(=O)(=O)c3cccc(C4CN(C)Cc5c(Cl)cc(Cl)cc54)c3)c2)C1 (stereo not given in full) | in the range around 316 nM
CN1Cc2c(Cl)cc(Cl)cc2C(c2cccc(S(=O)(=O)NCCOCCOCCOCCNC(=O)CN(CC(=O)NCCOCCOCCOCCNS(=O)(=O)c3cccc(C4CN(C)Cc5c(Cl)cc(Cl)cc54)c3)CC(=O)NCCOCCOCCOCCNS(=O)(=O)c3cccc(C4CN(C)Cc5c(Cl)cc(Cl)cc54)c3)c2)C1 (stereo not given) | in the range around 316 nM
CN1Cc2c(Cl)cc(Cl)cc2C(c2cccc(S(=O)(=O)NCCOCCOCCOCCNC(=O)C(O)C(O)C(=O)NCCOCCOCCOCCNS(=O)(=O)c3cccc(C4CN(C)Cc5c(Cl)cc(Cl)cc54)c3)c2)C1 (stereo not given) | < 100 nM
CN1Cc2c(Cl)cc(Cl)cc2C(c2cccc(S(=O)(=O)NCCOCCOCCOCCNC(=O)NCCCCNC(=O)NCCOCCOCCOCCNS(=O)(=O)c3cccc(C4CN(C)Cc5c(Cl)cc(Cl)cc54)c3)c2)C1 (stereo not given) | < 100 nM
CN1Cc2c(Cl)cc(Cl)cc2C(c2cccc(S(=O)(=O)NCCOCCOCCOCCNC(=O)c3ccc(C(=O)NCCOCCOCCOCCNS(=O)(=O)c4cccc(C5CN(C)Cc6c(Cl)cc(Cl)cc65)c4)cc3)c2)C1 (stereo not given) | < 100 nM
CN1Cc2c(Cl)cc(Cl)cc2C(c2cccc(S(=O)(=O)NCCOCCOCCOCCNC(=O)Nc3ccc(NC(=O)NCCOCCOCCOCCNS(=O)(=O)c4cccc(C5CN(C)Cc6c(Cl)cc(Cl)cc65)c4)cc3)c2)C1 (stereo not given) | in the range around 3160 nM
CN1Cc2c(Cl)cc(Cl)cc2C(c2cccc(S(=O)(=O)NCCOCCOCCOCCNC(=O)[C@@H](O)[C@H](O)C(=O)NCCOCCOCCOCCNS(=O)(=O)c3cccc(C4CN(C)Cc5c(Cl)cc(Cl)cc54)c3)c2)C1 (stereo not given in full) | < 100 nM
O=C(CNCc1ccc(Cl)cc1Cl)c1cccc([N+](=O)[O-])c1 | < 10000 nM
CN1Cc2c(Cl)cc(Cl)cc2C(c2cccc(S(=O)(=O)NCCOCCOCCOCCn3cc(COCc4cn(CCOCCOCCOCCNS(=O)(=O)c5cccc(C6CN(C)Cc7c(Cl)cc(Cl)cc76)c5)nn4)nn3)c2)C1 (stereo not given) | < 100 nM
CN1Cc2c(Cl)cc(Cl)cc2C(c2cccc(S(=O)(=O)NCCOCCOCCOCCNS(=O)(=O)c3cccc(S(=O)(=O)NCCOCCOCCOCCNS(=O)(=O)c4cccc(C5CN(C)Cc6c(Cl)cc(Cl)cc65)c4)c3)c2)C1 (stereo not given) | in the range around 3160 nM
CN1Cc2c(Cl)cc(Cl)cc2[C@H](c2ccc(S(=O)(=O)NCCOCCOCCOCCNC(=O)NCCCCNC(=O)NCCOCCOCCOCCNS(=O)(=O)c3ccc([C@@H]4CN(C)Cc5c(Cl)cc(Cl)cc54)cc3)cc2)C1 (single isomer, unassigned) | < 100 nM
CN1Cc2c(Cl)cc(Cl)cc2[C@H](c2ccc(S(=O)(=O)NCCOCCOCCOCCNC(=O)NCCOCCOCCOCCNS(=O)(=O)c3ccc([C@@H]4CN(C)Cc5c(Cl)cc(Cl)cc54)cc3)cc2)C1 (single isomer, unassigned) | < 100 nM
CN1Cc2c(Cl)cc(Cl)cc2[C@H](c2cccc(S(=O)(=O)NCCOCCOCCNC(=O)Nc3ccc(NC(=O)NCCOCCOCCNS(=O)(=O)c4cccc([C@@H]5CN(C)Cc6c(Cl)cc(Cl)cc65)c4)cc3)c2)C1 (single isomer, unassigned) | < 100 nM
CN1Cc2c(Cl)cc(Cl)cc2[C@H](c2ccc(S(=O)(=O)NCCOCCOCCNC(=O)COCC(=O)NCCOCCOCCNS(=O)(=O)c3ccc([C@@H]4CN(C)Cc5c(Cl)cc(Cl)cc54)cc3)cc2)C1 (single isomer, unassigned) | < 100 nM
